Test results from patent US10259810B2, “N-sulfonylated pyrazolo[3,4-b]pyridin-6-carboxamides and method of use” (AbbVie S.à.r.l., priority 2015, dated 2019).

Tests used:
Type in all cases: cell-based
CFTR ΔF508 = target: T1, CFTR ΔF508 (Homo sapiens, UniProt P13569, DEL508-508); test: Chronic TECC assay, primary bronchial epithelial cells of CF patients homozygous for CFTR ΔF508 (corrector, co-corrector and potentiator); conditions: chronic TECC, AUC = full area under the curve upon forskolin stimulation; for EC50: read-out: EC50 (nM) (AUC**); for % Activity at 3 μM (AUC**): test compound at 3 μM; for % Activity at 1 μM (AUC**): test compound at 1 μM
T1 construct: bronchial epithelial cells isolated from CF patients homozygous for the CFTR ΔF508 mutation; McGill University; Asterand; University of North Carolina hAEC-CF; host or cells: primary human bronchial epithelial cells from CF patients homozygous for ΔF508, differentiated at air-liquid interface
Outline: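 Primary bronchial epithelial cells from ΔF508-homozygous CF patients on collagen IV-coated Transwells were chronically treated with test compound plus corrector and potentiator, which were re-added before recording. Ieq was derived from PD and Rt in NaCl-Ringer, pH 7.4, at 37° C, with apical amiloride and bilateral forskolin, recorded every 2 min over 20 min. Ieq increase was normalized to controls, and EC50 was taken from per-well concentrations.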

ΔF508-CFTR [1] = target: T2, ΔF508-CFTR (Homo sapiens, UniProt P13569, DEL508-508); test: CFTR cell surface levels using HRP-tagged ΔF508-CFTR expressing CFBE cells, intrinsic corrector capacity; parameters: % Activation: concentration or dose not given beside the values; conditions: HRP-tagged ΔF508-CFTR expressing CFBE41o- cells, compound alone (intrinsic corrector capacity), 20 hours at 33° C.; for EC50: read-out: EC50
T2 construct: host or cells: CFBE41o-, doxycycline-inducible
Outline: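 Read-out: chemiluminescent HRP activity of ECL4-HRP-tagged ΔF508-CFTR at the cell surface, 15 min substrate in dark. Normalized as 100×(sample−DMSO)/(positive control−DMSO).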

ΔF508-CFTR [2] = target: T2, ΔF508-CFTR; test: CFTR cell surface levels using HRP-tagged ΔF508-CFTR expressing CFBE cells, in the presence of a co-corrector; conditions: HRP-tagged ΔF508-CFTR CFBE cells, in the presence of 3 μM co-corrector; for EC50: read-out: EC50
Outline: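 Chemiluminescent read-out of surface HRP (15 min, dark) after PBS washes. Activity is normalized as 100×(sample−DMSO)/(3 μM co-corrector alone−DMSO).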

T2 sequence (P13569 with tags, fused parts or gaps DEL508-508): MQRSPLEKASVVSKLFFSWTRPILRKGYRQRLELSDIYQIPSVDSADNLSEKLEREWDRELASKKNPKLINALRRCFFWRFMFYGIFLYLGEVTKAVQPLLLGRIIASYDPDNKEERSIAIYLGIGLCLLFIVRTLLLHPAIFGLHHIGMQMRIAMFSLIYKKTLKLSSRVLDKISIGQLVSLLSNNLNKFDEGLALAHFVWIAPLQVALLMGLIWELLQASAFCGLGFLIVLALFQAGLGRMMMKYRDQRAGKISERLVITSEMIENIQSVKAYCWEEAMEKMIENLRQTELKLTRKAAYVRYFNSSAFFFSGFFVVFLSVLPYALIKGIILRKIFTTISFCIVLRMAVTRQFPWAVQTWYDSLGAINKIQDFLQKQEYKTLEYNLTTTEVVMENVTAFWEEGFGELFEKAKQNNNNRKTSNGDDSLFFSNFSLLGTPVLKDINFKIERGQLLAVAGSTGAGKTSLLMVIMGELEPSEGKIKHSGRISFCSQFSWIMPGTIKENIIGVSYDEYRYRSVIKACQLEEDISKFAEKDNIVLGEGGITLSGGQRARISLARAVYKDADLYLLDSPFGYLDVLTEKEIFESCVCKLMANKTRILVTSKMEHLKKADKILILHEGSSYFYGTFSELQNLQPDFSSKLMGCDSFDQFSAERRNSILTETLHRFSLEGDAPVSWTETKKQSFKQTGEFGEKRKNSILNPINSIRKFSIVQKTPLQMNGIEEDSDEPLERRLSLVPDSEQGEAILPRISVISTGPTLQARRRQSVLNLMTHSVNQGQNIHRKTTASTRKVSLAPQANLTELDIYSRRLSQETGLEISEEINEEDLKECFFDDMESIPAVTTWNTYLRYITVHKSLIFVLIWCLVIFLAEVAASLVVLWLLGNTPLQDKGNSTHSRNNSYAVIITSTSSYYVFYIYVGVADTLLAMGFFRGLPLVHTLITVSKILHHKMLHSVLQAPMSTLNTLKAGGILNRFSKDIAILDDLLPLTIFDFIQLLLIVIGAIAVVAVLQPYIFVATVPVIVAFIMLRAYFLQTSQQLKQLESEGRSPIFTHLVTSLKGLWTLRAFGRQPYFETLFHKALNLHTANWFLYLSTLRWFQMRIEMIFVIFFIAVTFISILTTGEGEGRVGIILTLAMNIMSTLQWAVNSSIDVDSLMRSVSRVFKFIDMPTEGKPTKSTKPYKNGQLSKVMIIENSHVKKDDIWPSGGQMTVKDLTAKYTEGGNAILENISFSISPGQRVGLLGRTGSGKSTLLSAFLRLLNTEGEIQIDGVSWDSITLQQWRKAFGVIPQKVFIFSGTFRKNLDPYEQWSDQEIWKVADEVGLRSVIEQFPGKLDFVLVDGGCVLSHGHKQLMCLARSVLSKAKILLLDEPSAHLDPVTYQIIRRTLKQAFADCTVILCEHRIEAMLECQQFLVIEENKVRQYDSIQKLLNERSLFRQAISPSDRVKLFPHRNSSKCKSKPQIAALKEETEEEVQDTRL
T1 sequence (P13569 with tags, fused parts or gaps DEL508-508): as above

SMILES	EC50 (CFTR ΔF508) [nM]	% Activity at 3 μM (AUC**) (CFTR ΔF508) [%]	% Activation (ΔF508-CFTR [1]) [%]	EC50 (ΔF508-CFTR [1]) [nM]	% Activation (ΔF508-CFTR [2]) [%]	EC50 (ΔF508-CFTR [2]) [nM]	% Activity at 1 μM (AUC**) (CFTR ΔF508) [%]
CNS(=O)(=O)NC(=O)c1cc(N2CCC(N3CCN(C(C)C)CC3)CC2)c2c(C3CCC3)nn(-c3ccc(F)cc3)c2n1 [Compound 638, 3-cyclobutyl-1-(4-fluorophenyl)-N-(methylsulfamoyl)-4-{4-[4-(propan-2-yl)piperazin-1-yl]piperidin-1-yl}-1H-pyrazolo[3,4-b]pyridine-6-carboxamide]	11.2	341.3493	398.98	241	606.08	95	–
COC1CCN(C2CCN(c3cc(C(=O)NS(=O)(=O)N4CC(OC)C4)nc4c3c(C3CCC3)nn4-c3ccc(F)cc3)CC2)CC1 [Compound 645, 3-cyclobutyl-1-(4-fluorophenyl)-N-(3-methoxyazetidine-1-sulfonyl)-4-(4-methoxy[1,4'-bipiperidin]-1'-yl)-1H-pyrazolo[3,4-b]pyridine-6-carboxamide]	–	246.4648	194.33	331	384.37	244	–
COC1CCN(C2CCN(c3cc(C(=O)NS(=O)(=O)N4CC(F)C4)nc4c3c(C3CCC3)nn4-c3ccc(F)cc3)CC2)CC1 [Compound 646, 3-cyclobutyl-N-(3-fluoroazetidine-1-sulfonyl)-1-(4-fluorophenyl)-4-(4-methoxy[1,4'-bipiperidin]-1'-yl)-1H-pyrazolo[3,4-b]pyridine-6-carboxamide]	23.5	276.7167	236.13	400	447.9	259	–
COC1CCN(C2CCN(c3cc(C(=O)NS(=O)(=O)N4CCOCC4)nc4c3c(C3CCC3)nn4-c3ccc(F)cc3)CC2)CC1 [Compound 647, 3-cyclobutyl-1-(4-fluorophenyl)-4-(4-methoxy[1,4'-bipiperidin]-1'-yl)-N-(morpholine-4-sulfonyl)-1H-pyrazolo[3,4-b]pyridine-6-carboxamide]	151	420.0246	164.47	216	337.07	112	–
CS(=O)(=O)NC(=O)c1cc(C2CCC(N3CCOCC3)CC2)c2c(C3CCC3)nn(-c3ccccc3)c2n1 (stereo not shown) [Compound 648, 3-cyclobutyl-N-(methanesulfonyl)-4-[4-(morpholin-4-yl)cyclohexyl]-1-phenyl-1H-pyrazolo[3,4-b]pyridine-6-carboxamide]	–	–	109.65	316	288.85	110	366.0679
CN(C)S(=O)(=O)NC(=O)c1cc(C2CCC(N3CCOCC3)CC2)c2c(C3CCC3)nn(-c3ccccc3)c2n1 (stereo not shown) [Compound 649, 3-cyclobutyl-N-(dimethylsulfamoyl)-4-[4-(morpholin-4-yl)cyclohexyl]-1-phenyl-1H-pyrazolo[3,4-b]pyridine-6-carboxamide]	–	224.5026	69.12	370	231.7	152	–
CN(C(=O)c1cc(N2CCC(N3CCOCC3)CC2)c2c(C3CCC3)nn(-c3ccc(F)cc3)c2n1)S(C)(=O)=O [Compound 654, 3-cyclobutyl-1-(4-fluorophenyl)-N-(methanesulfonyl)-N-methyl-4-[4-(morpholin-4-yl)piperidin-1-yl]-1H-pyrazolo[3,4-b]pyridine-6-carboxamide]	–	–	73.925	5080	347.6	114	293.3333
CCS(=O)(=O)N(C)C(=O)c1cc(N2CCC(CN3CCCC3)CC2)c2c(C3CCC3)nn(-c3ccccc3)c2n1 [Compound 659, 3-cyclobutyl-N-(ethanesulfonyl)-N-methyl-1-phenyl-4-{4-[(pyrrolidin-1-yl)methyl]piperidin-1-yl}-1H-pyrazolo[3,4-b]pyridine-6-carboxamide]	–	251.6549	96.44	142	290.95	130	–
